We go through 14 compounds from patent US20220378923A1, “BET DEGRADER” (KYOWA KIRIN CO., LTD., priority 2019, published 2022).

Like-named read-outs stand apart in the source and are kept apart here. A value given as a limit tells only on which side of the number the result lay.

For assay [1], the system named is DCAF16 KO SU-DHL-4 cells. In words: Inhibitory effect on cell viability using SU-DHL-4 DCAF16 knock out (KO) cell line (Test Example 6). It counts as cell-based, human. As to conditions: for Activity Attenuation Ratio: (SU-DHL-4 DCAF16 KO IC50)/(SU-DHL-4 WT IC50); for IC50: DCAF16 KO SU-DHL-4 cells, 72 hours, Cell Counting Kit-8, 50% inhibition of cell viability. The essentials:
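SU-DHL-4 DLBCL cells carrying lentiviral Cas9 plus DCAF16-targeting sgRNA (three KO strains; non-targeting control strain), seeded 2000 cells/well, pre-cultured 18–25 h, then given 9-step compound dilutions (0.1% DMSO final) for 72 h at 37° C. Viability read by CCK-8 colorimetric assay.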
(Formazan colour is commonly taken as a measure of viable cells.)

Assay [2] concerns SU-DHL-4 cells. The assay can be described thus: Inhibitory effect on cell viability in SU-DHL-4 cell line (Test Example 1). It counts as cell-based, human. Conditions: 72 hours; for IC50: SU-DHL-4 (wild type) cells, calculated using the measurement results of test example 1, read-out: SU-DHL-4 WT IC50; for IC90: SU-DHL-4 cells, Cell Counting Kit-8, concentration showing 90% inhibition of cell viability, read-out: SU-DHL-4 Cell Viability Inhibition Rate IC90. The essentials: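 SU-DHL-4 cells were grown at 37° C. under 5% CO2 in RPMI1640 with 10 vol % heat-inactivated FBS plus penicillin/streptomycin, seeded and precultured for 18 to 25 hours, then exposed to test compound at 0.1 vol % DMSO for 72 hours. Viability was read with Cell Counting Kit-8 by absorbance at 450 nm.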

The IC50 is the concentration at which inhibition is half-maximal. On to `CCC(=O)N1c2ccccc2[C@H](Nc2ccc(NC(=O)C3CN(C(=O)C4CCN(Cc5cc(O)cc(-c6c(C)noc6C)c5)CC4)C3)cc2)C[C@@H]1C` [Compound 12b, 1-(1-(3-(3,5-Dimethylisoxazol-4-yl)-5-hydroxybenzyl)piperidine-4-carbonyl)-N-(4-(((2S,4R)-2-methyl-1-propionyl-1,2,3,4-tetrahydroquinolin-4-yl)amino)phenyl)azetidine-3-carboxamide], for which, in assay [1], the “Activity Attenuation Ratio” value is over 3526. For the same compound, the IC50 in assay [1] (Homo sapiens) was over 10000 nM; in assay [2] (Homo sapiens), 2.83 nM.

Consider `CCC(=O)N1c2ccccc2[C@H](Nc2ccc(C(=O)NCCCNC(=O)c3ccc(N[C@@H]4C[C@H](C)N(C(=O)CC)c5ccccc54)cc3)cc2)C[C@@H]1C` (relative stereo) [Compound 1a, N,N′-(Propane-1,3-diyl)bis(4-{[(2S*,4R*)-2-methyl-1-propionyl-1,2,3,4-tetrahydroquinolin-4-yl]amino}benzamide)], for which the “Activity Attenuation Ratio” value in assay [1] turned out to be 61. Besides, the IC50 is 68.7 nM in assay [1] (Homo sapiens) and 1.13 nM in assay [2] (Homo sapiens).

As for `CCC(=O)N1c2ccccc2[C@H](Nc2ccc(SCCNC(=O)c3ccc(C4=N[C@@H](CC(=O)OCCN(C)C)c5nnc(C)n5-c5sc(C)c(C)c54)cc3)cc2)C[C@@H]1C` [Compound 13a, 2-(Dimethylamino)ethyl 2-((S)-2,3,9-trimethyl-4-(4-((2-((4-(((2S,4R)-2-methyl-1-propionyl-1,2,3,4-tetrahydroquinolin-4-yl)amino)phenyl)thio)ethyl)carbamoyl)phenyl)-6H-thieno[3,2-f][1,2,4]triazolo[4,3-a][1,4]diazepin-6-yl)acetate], in assay [1], the “Activity Attenuation Ratio” value is 35. The IC50 in assay [1] (Homo sapiens) is 9.31 nM; in assay [2] (Homo sapiens) it was 0.26 nM.

Take `CCC(=O)N1c2ccccc2[C@H](Nc2ccc(NC(=O)COCC(=O)Nc3ccc(C4=NCc5nnc(C)n5-c5sc(C)c(C)c54)cc3)cc2)C[C@@H]1C` [Compound 14d, N-(4-(((2S,4R)-2-Methyl-1-propionyl-1,2,3,4-tetrahydroquinolin-4-yl)amino)phenyl)-2-(2-oxo-2-((4-(2,3,9-trimethyl-6H-thieno[3,2-f][1,2,4]triazolo[4,3-a][1,4]diazepin-4-yl)phenyl)amino)ethoxy)acetamide]: the “Activity Attenuation Ratio” value in assay [1] worked out at 96. In addition, the IC50 in assay [1] (Homo sapiens) is 9.61 nM; in assay [2] (Homo sapiens), 0.1 nM.

As a reminder, the IC90 is the concentration needed for an effect of 90%. `CCC(=O)N1c2ccccc2[C@H](Nc2ccc(NC(=O)C#CCNC(=O)C3CCC(N[C@@H]4C[C@H](C)N(C(=O)CC)c5ccccc54)CC3)cc2)C[C@@H]1C` (relative stereo) [Compound 8g, (1R,4r)-4-(((2S*,4R*)-2-Methyl-1-propionyl-1,2,3,4-tetrahydroquinolin-4-yl)amino)-N-(4-((4-(((2S,4R)-2-methyl-1-propionyl-1,2,3,4-tetrahydroquinolin-4-yl)amino)phenyl)amino)-4-oxobut-2-yn-1-yl)cyclohexane-1-carboxamide]: in assay [1], the “Activity Attenuation Ratio” value was 3174 and half-maximal inhibition (IC50) was put at 26 nM. Further, in assay [2], the 50% inhibitory concentration (IC50) is 0.008 nM and the concentration for an effect of 90% (IC90) amounted to 0.01 nM.

As to `CCC(=O)N1c2ccccc2[C@H](Nc2ccc(C(=O)NCCCNC(=O)c3ccc(C4=N[C@@H](CC(=O)OCCCOC)c5nnc(C)n5-c5sc(C)c(C)c54)cc3)cc2)C[C@@H]1C` [Compound 13h, 3-Methoxypropyl 2-((S)-2,3,9-trimethyl-4-(4-((3-(4-(((2S,4R)-2-methyl-1-propionyl-1,2,3,4-tetrahydroquinolin-4-yl)amino)benzamide)propyl)carbamoyl)phenyl)-6H-thieno[3,2-f][1,2,4]triazolo[4,3-a][1,4]diazepin-6-yl)acetate], in assay [1], the “Activity Attenuation Ratio” value was determined as 76 and the IC50 amounted to 22.8 nM. Besides, in assay [2], the IC50 was 0.3 nM and the IC90 was 0.34 nM.

`CCC(=O)N1c2ccccc2[C@H](NCc2ccc(C(=O)N3CC(C(=O)Nc4ccc(N[C@@H]5C[C@H](C)N(C(=O)CC)c6ccccc65)cc4)C3)cc2)C[C@@H]1C` (relative stereo) [Compound 10g, 1-(4-((((2S*,4R*)-2-Methyl-1-propionyl-1,2,3,4-tetrahydroquinolin-4-yl)amino)methyl)benzoyl)-N-(4-(((2S,4R)-2-methyl-1-propionyl-1,2,3,4-tetrahydroquinolin-4-yl)amino)phenyl)azetidine-3-carboxamide]: the “Activity Attenuation Ratio” value in assay [1] worked out at 154. Also, the IC50 is 142 nM in assay [1] (Homo sapiens) and 0.91 nM in assay [2] (Homo sapiens).

Turning to `Cc1sc2c(c1C)C(c1ccc(C(=O)NCCCNC(=O)c3ccc(C4=N[C@@H](CC(=O)OC(C)(C)C)c5nnc(C)n5-c5sc(C)c(C)c54)cc3)cc1)=N[C@@H](CC(=O)OC(C)(C)C)c1nnc(C)n1-2` [Compound 1b, Di-tert-butyl 2,2′-[(6S,6′S)-({[propane-1,3-diylbis(azanediyl)]bis(carbonyl)}bis(4,1-phenylene))bis(2,3,9-trimethyl-6H-thieno[3,2-f][1,2,4]triazolo[4,3-a][1,4]diazepine-4,6-diyl)]diacetate], the “Activity Attenuation Ratio” value in assay [1] is 56. Further, the IC50 is 36.7 nM in assay [1] (Homo sapiens) and 0.65 nM in assay [2] (Homo sapiens).

With `Cc1sc2c(c1C)C(c1ccc(Cl)cc1)=N[C@@H](CC(=O)NCCOCCOCCOCCOCCOCCOCCOCCNC(=O)C[C@@H]1N=C(c3ccc(Cl)cc3)c3c(sc(C)c3C)-n3c(C)nnc31)c1nnc(C)n1-2` [compound 2, reference compound], in assay [1], the “Activity Attenuation Ratio” value is on record as 0.32 and the midpoint of inhibition, the IC50, lay at 75.7 nM. Moreover, in assay [2], the IC50 was 235 nM and the IC90 is over 10000 nM.

In the case of `CCC(=O)N1c2ccccc2[C@H](Nc2ccc(NC(=O)CNC(=O)Nc3ccc(C4=NCc5nnc(C)n5-c5sc(C)c(C)c54)cc3)cc2)C[C@@H]1C` [Compound 14f, N-(4-(((2S,4R)-2-Methyl-1-propionyl-1,2,3,4-tetrahydroquinolin-4-yl)amino)phenyl)-2-(3-(4-(2,3,9-trimethyl-6H-thieno[3,2-f][1,2,4]triazolo[4,3-a][1,4]diazepin-4-yl)phenyl)ureido)acetamide], the “Activity Attenuation Ratio” value in assay [1] stood at 22. Further, the IC50 in assay [1] (Homo sapiens) is 2.95 nM; in assay [2] (Homo sapiens), 0.14 nM.

For `CCC(=O)N1c2ccccc2[C@H](Nc2ccc(NC(=O)CCCC(=O)NC3CCC(Cn4cc(-c5c(C)noc5C)ccc4=O)CC3)cc2)C[C@@H]1C` (stereo partly drawn) [Compound 16p, N^1-((1r,4r)-4-((5-(3,5-Dimethylisoxazol-4-yl)-2-oxopyridin-1(2H)-yl)methyl)cyclohexyl)-N5-(4-(((2S,4R)-2-methyl-1-propionyl-1,2,3,4-tetrahydroquinolin-4-yl)amino)phenyl)glutaramide], in assay [1], the “Activity Attenuation Ratio” value came to 3390 and the IC50 is 925 nM. For the same compound, in assay [2], the IC50 was 0.27 nM and the IC90 is 0.63 nM.

`CCC(=O)N1c2ccccc2[C@H](Nc2ccc(NC(=O)CNC(=O)N[C@H]3CC[C@H](N[C@@H]4C[C@H](C)N(C(=O)CC)c5ccccc54)CC3)cc2)C[C@@H]1C` [Compound 8j, 2-(3-((1R,4R)-4-(((2S,4R)-2-Methyl-1-propionyl-1,2,3,4-tetrahydroquinolin-4-yl)amino)cyclohexyl)ureido)-N-(4-(((2S,4R)-2-methyl-1-propionyl-1,2,3,4-tetrahydroquinolin-4-yl)amino)phenyl)acetamide]: in assay [1], the “Activity Attenuation Ratio” value was 767 and the IC50 was 228 nM. Besides, in assay [2], the IC50 was 0.29 nM and the IC90 amounted to 0.5 nM.

With `CCC(=O)N1c2ccccc2[C@H](Nc2ccc(NC(=O)CCCC(=O)Nc3ccc(Cn4cc(-c5c(C)noc5C)ccc4=O)cc3)cc2)C[C@@H]1C` [Compound 17a, N^1-(4-((5-(3,5-Dimethylisoxazol-4-yl)-2-oxopyridin-1(2H)-yl)methyl)phenyl)-N5-(4-(((2S,4R)-2-methyl-1-propionyl-1,2,3,4-tetrahydroquinolin-4-yl)amino)phenyl)glutaramide], the “Activity Attenuation Ratio” value in assay [1] is given as 1895. The compound further displayed an IC50 in assay [1] (Homo sapiens) of 182 nM. Moreover, in assay [2] (Homo sapiens), the concentration for half-maximal inhibition (IC50) was 0.1 nM and the IC90 is 0.16 nM.

For the compound `CCC(=O)N1c2ccccc2[C@H](Nc2ccc(-c3nnc(CNC(=O)[C@H]4CC[C@H](N[C@@H]5C[C@H](C)N(C(=O)CC)c6ccccc65)CC4)o3)cc2)C[C@@H]1C` [Compound 7q, (1R,4R)-4-(((2S,4R)-2-Methyl-1-propionyl-1,2,3,4-tetrahydroquinolin-4-yl)amino)-N-((5-(4-(((2S,4R)-2-methyl-1-propionyl-1,2,3,4-tetrahydroquinolin-4-yl)amino)phenyl)-1,3,4-oxadiazol-2-yl)methyl)cyclohexane-1-carboxamide], in assay [1], the “Activity Attenuation Ratio” value was found to be 850 and the 50% inhibitory concentration (IC50) was 79.7 nM. Moreover, in assay [2], the IC50 was 0.09 nM and the IC90 is 0.24 nM.
